In US20070128217A1 (priority 2003, published 2007):

Key:
[1] = test system: rabbit serum obtained by immunizing a rabbit with the SARS-CoV strain Frankfurt 1; type: binding; set-up: Binding of a rabbit serum to linear peptides / Binding of a rabbit serum to looped peptides / Rabbit serum linear peptides / Rabbit serum looped peptides / Binding of a rabbit serum to linear peptides of protein N of SARS-CoV Urbani (Rabbit serum linear peptides) / Binding of a rabbit serum to looped/cyclic peptides of protein N of SARS-CoV Urbani (Rabbit serum looped peptides): unit not given here
[2] = test system: antibodies in sera from SARS patients (sera 1a, 1b, 2, 6, 37, 62, London, SARS-yellow, SARS-green); type: binding, human; set-up: Binding of serum 6 to linear peptides of protein X1 of SARS-CoV Urbani / Binding of serum 37 to linear peptides of protein X1 of SARS-CoV Urbani / Binding of serum 6 to looped/cyclic peptide (PEPSCAN-ELISA) / Binding of serum 37 to looped/cyclic peptide (PEPSCAN-ELISA) / Binding of serum 37 to looped/cyclic peptides of protein X1 of SARS-CoV Urbani / Binding of serum 6 to linear peptides of protein X2 / Binding of serum 37 to linear peptides of protein X2 / Binding of serum 37 to looped/cyclic peptides of protein X2 of SARS-CoV Urbani / Binding of serum 6 to linear peptides of protein M of SARS-CoV Urbani / Binding of serum 37 to linear peptides of protein M of SARS-CoV Urbani / Binding of serum 6 to looped/cyclic peptides of protein M of SARS-CoV Urbani / Binding of serum 37 to looped/cyclic peptides of protein M of SARS-CoV Urbani / Binding of serum 6 to linear peptides of protein X3 of SARS-CoV Urbani / Binding of serum 37 to linear peptides of protein X3 of SARS-CoV Urbani / Binding of serum 37 to looped/cyclic peptides of protein X3 of SARS-CoV Urbani / Binding of serum 6 to linear peptides of protein X4 of SARS-CoV Urbani / Binding of serum 37 to linear peptides of protein X4 of SARS-CoV Urbani / Binding of serum 37 to looped/cyclic peptides of protein X4 of SARS-CoV Urbani / Binding of serum 6 to linear peptides of protein X5 of SARS-CoV Urbani / Binding of serum 37 to linear peptides of protein X5 of SARS-CoV Urbani / Binding of serum 37 to looped/cyclic peptides of protein X5 of SARS-CoV Urbani / Binding of serum 6 to linear peptides of protein N of SARS-CoV Urbani / Binding of serum 37 to linear peptides of protein N of SARS-CoV Urbani / Binding of serum 6 to linear peptide (PEPSCAN-ELISA) / Binding of serum 1a to looped/cyclic peptides of protein N of SARS-CoV Urbani / Binding of serum 1b to looped/cyclic peptides of protein N of SARS-CoV Urbani / Binding of serum 2 to looped/cyclic peptides of protein N of SARS-CoV Urbani / Binding of serum 6 to looped/cyclic peptides of protein N of SARS-CoV Urbani / Binding of serum 37 to looped/cyclic peptides of protein N of SARS-CoV Urbani / Binding of serum 62 to looped/cyclic peptides of protein N of SARS-CoV Urbani / Binding of serum London to looped/cyclic peptides of protein N of SARS-CoV Urbani / Binding of serum SARS-green to looped/cyclic peptides of protein N of SARS-CoV Urbani: unit not given here
[3] = test system: control sera (pooled serum of ten healthy LUMC hospital workers; commercial negative donor pooled serum from the Dutch bloodbank); type: binding, human; set-up: Binding of Control serum LUMC to linear peptides / Binding of Control serum Blood-bank to linear peptides / Binding of Control serum LUMC to looped peptides / Binding of Control Serum Blood-Bank to Looped peptides / Binding of Control serum LUMC to linear peptides of the protein M of SARS-CoV Urbani / Binding of Control serum Blood-bank to linear peptides of the protein M of SARS-CoV Urbani / Binding of Control serum LUMC to looped peptides of the protein M of SARS-CoV Urbani / Binding of Control Serum Blood-Bank to Looped peptides of the protein M of SARS-CoV Urbani: unit not given here

VAFLAVFQSATKIIA
Binding of a rabbit serum to linear peptides [1]: 0.2
Binding of a rabbit serum to looped peptides [1]: 0.6
Binding of serum 1a to linear peptides of protein X1 of SARS-CoV Urbani [2]: 0.6
Binding of serum 1a to looped/cyclic peptide (PEPSCAN-ELISA) [2]: 0.6
Binding of serum 1b to linear peptides of protein X1 of SARS-CoV Urbani [2]: 0.5
Binding of serum 1b to looped/cyclic peptide (PEPSCAN-ELISA) [2]: 0.4
Binding of serum 2 to linear peptides of protein X1 of SARS-CoV Urbani [2]: 0.5
Binding of serum 2 to looped/cyclic peptide (PEPSCAN-ELISA) [2]: 0.6
Binding of serum 6 to linear peptides of protein X1 of SARS-CoV Urbani [2]: 0.7
Binding of serum 6 to looped/cyclic peptide (PEPSCAN-ELISA) [2]: 0.7
Binding of serum 37 to linear peptides of protein X1 of SARS-CoV Urbani [2]: 0.6
Binding of serum 37 to looped/cyclic peptide (PEPSCAN-ELISA) [2]: 0.6
Binding of serum 62 to linear peptides of protein X1 of SARS-CoV Urbani [2]: 0.6
Binding of serum 62 to looped/cyclic peptide (PEPSCAN-ELISA) [2]: 0.6
Binding of serum London to linear peptides of protein X1 of SARS-CoV Urbani [2]: 0.2
Binding of serum London to looped/cyclic peptide (PEPSCAN-ELISA) [2]: 0.7
Binding of serum SARS-green to linear peptides of protein X1 of SARS-CoV Urbani [2]: 0.2
Binding of serum SARS-green to looped/cyclic peptide (PEPSCAN-ELISA) [2]: 0.4
Binding of serum SARS-yellow to linear peptides of protein X1 of SARS-CoV Urbani [2]: 0.4
Binding of serum SARS-yellow to looped/cyclic peptide (PEPSCAN-ELISA) [2]: 0.5
Binding of Control Serum Blood-Bank to Looped peptides [3]: 0.7
Binding of Control serum Blood-bank to linear peptides [3]: 0.6
Binding of Control serum LUMC to linear peptides [3]: 0.5
Binding of Control serum LUMC to looped peptides [3]: 0.7

VATSRTLSYYKLGAS
Rabbit serum linear peptides [1]: 0.3
Rabbit serum looped peptides [1]: 0.7
Binding of serum 1a to linear peptides of protein M of SARS-CoV Urbani [2]: 0.6
Binding of serum 1a to looped/cyclic peptides of protein M of SARS-CoV Urbani [2]: 0.8
Binding of serum 1b to linear peptides of protein M of SARS-CoV Urbani [2]: 0.5
Binding of serum 1b to looped/cyclic peptides of protein M of SARS-CoV Urbani [2]: 0.6
Binding of serum 2 to linear peptides of protein M of SARS-CoV Urbani [2]: 0.6
Binding of serum 2 to looped/cyclic peptides of protein M of SARS-CoV Urbani [2]: 0.7
Binding of serum 6 to linear peptides of protein M of SARS-CoV Urbani [2]: 0.8
Binding of serum 6 to looped/cyclic peptides of protein M of SARS-CoV Urbani [2]: 0.6
Binding of serum 37 to linear peptides of protein M of SARS-CoV Urbani [2]: 0.5
Binding of serum 37 to looped/cyclic peptides of protein M of SARS-CoV Urbani [2]: 0.7
Binding of serum 62 to linear peptides of protein M of SARS-CoV Urbani [2]: 0.5
Binding of serum 62 to looped/cyclic peptides of protein M of SARS-CoV Urbani [2]: 0.6
Binding of serum London to linear peptides of protein M of SARS-CoV Urbani [2]: 0.3
Binding of serum London to looped/cyclic peptides of protein M of SARS-CoV Urbani [2]: 0.2
Binding of serum SARS-green to linear peptides of protein M of SARS-CoV Urbani [2]: 0.4
Binding of serum SARS-green to looped/cyclic peptides of protein M of SARS-CoV Urbani [2]: 0.3
Binding of serum SARS-yellow to linear peptides of protein M of SARS-CoV Urbani [2]: 0.3
Binding of serum SARS-yellow to looped/cyclic peptides of protein M of SARS-CoV Urbani [2]: 0.6
Binding of Control Serum Blood-Bank to Looped peptides of the protein M of SARS-CoV Urbani [3]: 0.5
Binding of Control serum Blood-bank to linear peptides of the protein M of SARS-CoV Urbani [3]: 0.8
Binding of Control serum LUMC to linear peptides of the protein M of SARS-CoV Urbani [3]: 0.6
Binding of Control serum LUMC to looped peptides of the protein M of SARS-CoV Urbani [3]: 0.6
